# Values of other authors as cited in patent US12605434B2, “Composition for preventing or treating autoimmune diseases” (STATENS SERUM INSTITUT, priority 2021, dated 2026).
# Test system: Th17 polarization
structure (smiles),measurement,setting,value
"CC1=C(/C=C/C(C)=C/C=C/C(C)=C/C(=O)O)C(C)(C)CCC1 [ATRA, all-trans retinoic acid]",FoxP3 expression,"Elias_2008, Kwok_2012",enhancing FoxP3 expression
same,Th17 polarization,"Elias_2008, Kwok_2012",inhibit the Th17 polarization
same,RORγT in T cells,Mucinda_2007,reduction of RORγT
